Measurements as given in patent publication US8772307B2, “Substituted spiro compounds and their use for producing pain-relief medicaments” (Gruenenthal GmbH, priority 2005, dated 2014).

Assays:
[1] = target: T1, rat-species vanilloid receptor 1 (VR1/TRPV1) (Rattus norvegicus, UniProt O35433); test: Functional testing on vanilloid receptor 1 (VR1/TRPV1): FLIPR Ca2+ inflow assay in rat dorsal root ganglia cells (% activation / % inhibition vs capsaicin); assay type: cell-based; settings: for inhibition at 10 µM: inhibition compared to 10 μM CP (capsaicin); for activation at 10 µM: stimulation compared to 10 μM CP (capsaicin); for IC50: capsaicin (CAP) stimulus, average
T1 construct: endogenous in cells; host or cells: primary cells dissociated from rat dorsal root ganglia (DRG)
Outline: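 Rat dorsal root ganglion cells, dissociated with collagenase and trypsin, were plated at 3×10^5/mL on laminin-coated plates in NGF-containing HAMS F12 and cultured 2-3 days at 37° C. Ca2+ inflow read by Fluo-4 fluorescence on FLIPR; test compounds at 10 μM referenced to 10 μM capsaicin.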

[2] = target: T2, vanilloid receptor (VR1) (Homo sapiens, UniProt Q8NER1); test: Functional testing on vanilloid receptor (VR1): FLIPR Ca2+ inflow assay in CHO K1 cells stably transfected with the VR1 gene; assay type: cell-based; settings: for inhibition at 10 µM: CHO-K1, inhibition compared to 10 μM CP (capsaicin); for activation at 10 µM: CHO-K1, stimulation compared to 10 μM CP (capsaicin); for IC50: capsaicin (CAP) stimulus, average
T2 construct: expressed in transfected cells; host or cells: CHO K1 cells (ECACC), stably transfected
Outline: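 CHO K1 cells stably expressing VR1, loaded with Fluo-4 (2 μM, 30 min, 37° C); peak Ca²⁺ fluorescence read on FLIPR. Compound (10 μM) added first, agonism as % of 10 μM capsaicin signal; after 5 min, 100 nM capsaicin added, % inhibition calculated relative to maximal inhibition with 10 μM capsaicin.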

T2 sequence (Q8NER1 whole entry): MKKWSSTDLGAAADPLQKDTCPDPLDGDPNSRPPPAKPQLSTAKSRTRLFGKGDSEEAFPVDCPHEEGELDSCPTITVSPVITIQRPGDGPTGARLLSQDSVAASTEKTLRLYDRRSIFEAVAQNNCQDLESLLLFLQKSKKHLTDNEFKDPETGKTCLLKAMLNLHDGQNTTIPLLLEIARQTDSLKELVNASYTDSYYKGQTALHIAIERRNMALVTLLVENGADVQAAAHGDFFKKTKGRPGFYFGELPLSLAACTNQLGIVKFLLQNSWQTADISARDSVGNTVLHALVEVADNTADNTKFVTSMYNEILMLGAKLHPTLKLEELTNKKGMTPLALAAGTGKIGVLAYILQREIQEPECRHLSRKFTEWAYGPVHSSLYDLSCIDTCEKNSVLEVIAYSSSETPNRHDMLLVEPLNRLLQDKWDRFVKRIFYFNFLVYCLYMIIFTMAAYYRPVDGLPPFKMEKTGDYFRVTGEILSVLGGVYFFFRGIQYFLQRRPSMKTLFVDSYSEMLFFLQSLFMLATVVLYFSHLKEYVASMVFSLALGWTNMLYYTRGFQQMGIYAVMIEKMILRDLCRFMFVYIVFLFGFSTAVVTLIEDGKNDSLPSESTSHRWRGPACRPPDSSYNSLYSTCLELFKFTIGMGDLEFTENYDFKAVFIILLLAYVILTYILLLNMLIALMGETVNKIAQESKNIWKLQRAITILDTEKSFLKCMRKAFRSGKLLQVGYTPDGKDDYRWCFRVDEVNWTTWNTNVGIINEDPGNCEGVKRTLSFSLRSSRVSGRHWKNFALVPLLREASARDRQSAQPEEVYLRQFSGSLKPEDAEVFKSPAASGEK
T1 sequence (O35433 whole entry): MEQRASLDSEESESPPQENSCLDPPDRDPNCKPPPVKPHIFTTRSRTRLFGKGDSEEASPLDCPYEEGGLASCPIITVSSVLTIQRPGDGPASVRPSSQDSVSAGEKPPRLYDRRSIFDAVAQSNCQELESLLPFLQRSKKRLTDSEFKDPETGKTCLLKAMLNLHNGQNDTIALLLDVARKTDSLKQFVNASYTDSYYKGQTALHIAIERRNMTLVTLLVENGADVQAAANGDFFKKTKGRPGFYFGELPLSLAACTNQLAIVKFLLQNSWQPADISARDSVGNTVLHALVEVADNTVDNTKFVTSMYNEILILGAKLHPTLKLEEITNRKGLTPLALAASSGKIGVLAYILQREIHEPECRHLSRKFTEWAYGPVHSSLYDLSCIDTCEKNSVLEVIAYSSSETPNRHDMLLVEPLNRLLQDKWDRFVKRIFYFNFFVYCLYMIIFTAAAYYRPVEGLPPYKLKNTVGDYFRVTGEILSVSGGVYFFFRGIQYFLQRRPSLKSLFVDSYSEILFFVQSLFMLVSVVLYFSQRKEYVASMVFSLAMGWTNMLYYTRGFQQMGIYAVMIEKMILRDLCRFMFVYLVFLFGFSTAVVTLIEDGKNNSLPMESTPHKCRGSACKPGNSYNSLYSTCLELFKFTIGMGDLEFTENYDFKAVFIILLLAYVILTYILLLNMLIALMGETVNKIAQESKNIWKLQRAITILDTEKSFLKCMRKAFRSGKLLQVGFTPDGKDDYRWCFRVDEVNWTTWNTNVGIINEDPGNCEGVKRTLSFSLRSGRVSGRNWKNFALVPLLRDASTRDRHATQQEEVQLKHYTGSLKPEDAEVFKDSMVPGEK

| Structure (SMILES) | melting point [°C] | inhibition at 10 µM [1] [%] | activation at 10 µM [1] [%] | inhibition at 10 µM [2] [%] | activation at 10 µM [2] [%] | IC50 [1] [µM] | IC50 [2] [µM] |
| --- | --- | --- | --- | --- | --- | --- | --- |
| CC(C)(C)c1ccc2[nH]c(N3CCC4(CC3)CC(c3ccccc3)=NO4)nc2c1 [Compound 379, 8-(5-tert-butyl-1H-benzimidazol-2-yl)-3-phenyl-1-oxa-2,8-diazaspiro[4.5]dec-2-ene] | 230 to 236 | – | – | – | – | – | – |
| COc1cccc(C2=NOC3(CCN(C(=O)/C=C/c4ccc(C(F)(F)F)nc4)CC3)C2)c1 [Compound 362, (E)-1-(3-(3-methoxyphenyl)-1-oxa-2,8-diazaspiro[4.5]dec-2-en-8-yl)-3-(6-(trifluoromethyl)pyridin-3-yl)prop-2-en-1-one] | – | 44 | -1 | 19 | 0 | – | – |
| O=C(Nc1ccc(C(F)(F)F)cc1)N1CCC2(CC1)CC(c1cccc(F)c1)=NO2 [Compound 348, 3-(3-fluorophenyl)-N-(4-(trifluoromethyl)phenyl)-1-oxa-2,8-diazaspiro[4.5]dec-2-ene-8-carboxamide] | – | 101 | 3 | 60 | 0 | – | – |
| CC1CN(C(=O)Nc2ccc(C(F)(F)F)cc2)CCC12CC(c1ccccc1)=NO2 (stereo not shown) [Compound 385, 6-methyl-3-phenyl-N-(4-(trifluoromethyl)phenyl)-1-oxa-2,8-diazaspiro[4.5]dec-2-ene-8-carboxamide] | – | 77 | 1 | 18 | -2 | 0.0598 | – |
| COc1ccccc1NC(=O)N1CCC2(CC1)CC(c1ccc(C(C)(C)C)cc1)=NO2 [Compound 201, 3-(4-tert-butylphenyl)-1-oxa-2,8-diazaspiro[4.5]dec-2-ene-8-carboxylic acid-(2-methoxyphenyl)amide] | – | 54.2 | -0.43 | -0.7 | 8.56 | – | – |
| CC(C)(C)c1ccc(CCC(=O)N2CCC3(CC2)CC(c2ccccc2)=NO3)cc1 [Compound 350, 3-(4-tert-butylphenyl)-1-(3-phenyl-1-oxa-2,8-diazaspiro[4.5]dec-2-en-8-yl)propan-1-one] | – | 81 | 1 | -4 | 0 | – | – |
| CC(C)(C)c1ccc(NC(=O)N2CCC3(CC2)CC(c2ccc(Cl)cc2)=NO3)cc1 [Compound 142, 3-(4-chlorophenyl)-1-oxa-2,8-diazaspiro[4.5]dec-2-ene-8-carboxylic acid-(4-tert-butylphenyl)amide] | – | 63 | -0.2 | -18.8 | -0.07 | – | – |
| COc1cccc(C2=NOC3(CCN(C(=O)Nc4ccc(OC(F)(F)F)cc4)CC3)C2)c1 [Compound 244, 3-(3-methoxyphenyl)-1-oxa-2,8-diazaspiro[4.5]dec-2-ene-8-carboxylic acid-(4-trifluoromethoxyphenyl)amide] | – | 89.1 | 9.79 | 3.09 | -0.28 | – | – |
| O=C(/C=C/c1ccc(C(F)(F)F)nc1N1CCCCC1)N1CCC2(CC1)CC(c1ccccc1)=NO2 [Compound 355, (E)-1-(3-phenyl-1-oxa-2,8-diazaspiro[4.5]dec-2-en-8-yl)-3-(2-(piperidin-1-yl)-6-(trifluoromethyl)pyridin-3-yl)prop-2-en-1-one] | – | 98 | 0 | 63 | 0 | – | – |
| CC(C)(C)c1ccc(C=CC(=O)N2CCC3(CC2)CC(c2ccccc2)=NO3)cc1 [Compound 323, 3-(4-tert-butylphenyl)-1-(3-phenyl-1-oxa-2,8-diazaspiro[4.5]dec-2-en-8-yl)propenone] | – | 98 | 0 | 36 | 0 | 0.181 | 1.44 |
| CCc1ccc(NC(=O)N2CCC3(CC2)CC(c2ccccc2)=NO3)cc1 [Compound 163, 3-phenyl-1-oxa-2,8-diazaspiro[4.5]dec-2-ene-8-carboxylic acid-(4-ethylphenyl)amide] | – | 84.3 | -0.43 | -3.15 | 0.12 | – | – |
| CC(C)(C)c1ccc(NC(=O)N2CCC3(CC2)CC(c2ccc(C(C)(C)C)cc2)=NO3)cc1 [Compound 143, 3-(4-tert-butylphenyl)-1-oxa-2,8-diazaspiro[4.5]dec-2-ene-8-carboxylic acid-(4-tert-butylphenyl)amide] | – | 45.7 | -0.33 | -7.17 | 4.12 | – | – |
| CCc1ccc(NC(=O)N2CCC3(CC2)CC(c2ccc(C(C)(C)C)cc2)=NO3)cc1 [Compound 165, 3-(4-tert-butylphenyl)-1-oxa-2,8-diazaspiro[4.5]dec-2-ene-8-carboxylic acid-(4-ethylphenyl)amide] | – | 56.2 | -0.43 | 1.69 | 1.92 | – | – |
| CCc1ccc(NC(=O)N2CCC3(CC2)CC(c2ccc(Cl)cc2)=NO3)cc1 [Compound 164, 3-(4-chlorophenyl)-1-oxa-2,8-diazaspiro[4.5]dec-2-ene-8-carboxylic acid-(4-ethylphenyl)amide] | – | 72.9 | -0.43 | -2.13 | -0.04 | – | – |
| CC(C)(C)c1ccc(/C(=C/C(=O)N2CCC3(CC2)CC(c2cccc(F)c2)=NO3)c2ccc(Cl)c(Cl)c2)cc1 [Compound 360, (Z)-3-(4-tert-butylphenyl)-3-(3,4-dichlorophenyl)-1-(3-(3-fluorophenyl)-1-oxa-2,8-diazaspiro[4.5]dec-2-en-8-yl)prop-2-en-1-one] | – | 80 | 3 | 12 | 0 | – | – |
| O=C(/C=C/c1ccc(C(F)(F)F)nc1N1CCCCC1)N1CCC2(CC1)CC(c1cccc(Cl)c1)=NO2 [Compound 356, (E)-1-(3-(3-chlorophenyl)-1-oxa-2,8-diazaspiro[4.5]dec-2-en-8-yl)-3-(2-(piperidin-1-yl)-6-(trifluoromethyl)pyridin-3-yl)prop-2-en-1-one] | – | 88 | 0 | 52 | 0 | – | – |
| O=C(/C=C/c1cccc(Br)c1)N1CCC2(CC1)CC(c1ccccc1)=NO2 [Compound 346, (E)-3-(3-bromophenyl)-1-(3-phenyl-1-oxa-2,8-diazaspiro[4.5]dec-2-en-8-yl)prop-2-en-1-one] | – | 62 | 0 | 3 | 0 | 1.36 | 4.38 |
